Laboratory results published in US20230382904A1, “SUBSTITUTED 4-([1,2,4]TRIAZOLO[1,5-a]PYRIDIN-6-YL)THIOPHENE-2-CARBOXAMIDE DERIVATIVES AND USE THEREOF” (The Johns Hopkins University, priority 2020, published 2023).

How the values were obtained:
LZK = LZK (Homo sapiens (Human), UniProt O43283); assay: LZK biochemical assay (TR-FRET, MKK7 phosphorylation)
Procedure, shortened: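 Catalytic-domain LZK (10 nM) phosphorylated His-MKK7 (15 nM) with 15 μM ATP for 90 min at RT. Phospho-T275/S277 detected by Eu-anti-phospho-MKK7/XL665-anti-His TR-FRET after 16 h at 32° C, using the 665/Eu ratio. Buffer: 50 mM Hepes pH 7.5, 10 mM MgCl2, 1 mM DTT.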

DLK = DLK (Homo sapiens (Human), UniProt Q12852); assay: DLK biochemical assay (TR-FRET, MKK7 phosphorylation)
Procedure, shortened: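 Catalytic-domain DLK (10 nM) phosphorylates His-MKK7 (15 nM) with 60 μM ATP, 90 min at RT, in pH 7.5 HEPES buffer. Phospho-T275/S277 read by TR-FRET (Eu anti-phospho donor, XL665 anti-His acceptor) after 16 h detection, at 37° C. in 1536 or 4° C. in 384 format.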

Chain of DLK (Q12852 1-520): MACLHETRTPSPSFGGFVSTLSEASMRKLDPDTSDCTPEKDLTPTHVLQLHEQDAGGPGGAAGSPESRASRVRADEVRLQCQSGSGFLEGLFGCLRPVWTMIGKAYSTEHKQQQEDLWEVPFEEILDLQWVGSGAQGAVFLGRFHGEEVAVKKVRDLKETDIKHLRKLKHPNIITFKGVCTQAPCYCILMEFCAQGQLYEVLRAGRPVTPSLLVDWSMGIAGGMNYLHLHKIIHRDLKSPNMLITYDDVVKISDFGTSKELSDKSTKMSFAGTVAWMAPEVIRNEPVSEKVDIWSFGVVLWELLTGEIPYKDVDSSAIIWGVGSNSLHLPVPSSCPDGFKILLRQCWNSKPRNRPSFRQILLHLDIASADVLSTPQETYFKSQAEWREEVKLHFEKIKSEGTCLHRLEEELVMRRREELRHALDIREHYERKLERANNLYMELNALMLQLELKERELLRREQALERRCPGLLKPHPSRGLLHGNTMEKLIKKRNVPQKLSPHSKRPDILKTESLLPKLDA
Chain of LZK (O43283 168-409): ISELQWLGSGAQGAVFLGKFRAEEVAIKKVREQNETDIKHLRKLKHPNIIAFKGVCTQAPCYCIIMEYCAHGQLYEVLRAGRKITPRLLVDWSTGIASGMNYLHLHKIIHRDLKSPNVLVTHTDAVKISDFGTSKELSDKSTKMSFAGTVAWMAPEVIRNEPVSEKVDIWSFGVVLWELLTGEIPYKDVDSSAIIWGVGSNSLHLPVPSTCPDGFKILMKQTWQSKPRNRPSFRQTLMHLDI

Structure (SMILES)	IC50 (LZK)	IC50 (DLK)
Nc1nc2ccc(-c3csc(C(=O)NC4(c5ccc(F)cc5)CCC4)c3)cn2n1 [Compound 309]	6.6 µM	0.12 µM
Nc1nc2ccc(-c3csc(C(=O)NC4(c5ccc(F)cc5)CCCC4)c3)cn2n1 [Compound 310]	17 µM	0.051 µM
COc1cccc(CNC(=O)c2cc(-c3ccc4nc(N)nn4c3)c(C)s2)c1 [Compound 311]	> 30 µM	19 µM
Cc1sc(C(=O)NC2CCCCC2)cc1-c1ccc2nc(N)nn2c1 [Compound 312]	> 30 µM	> 30 µM
Cc1sc(C(=O)NCc2nc3ccccc3o2)cc1-c1ccc2nc(N)nn2c1 [Compound 313]	> 30 µM	24 µM
Nc1nc2ccc(-c3csc(C(=O)NC4(c5ccc(F)cc5)COC4)c3)cn2n1 [Compound 314]	7 µM	0.53 µM
Cc1sc(C(=O)NCc2ccccc2)cc1-c1ccc2nc(N)nn2c1 [Compound 320]	> 30 µM	> 30 µM
C[C@@H](NC(=O)c1cc(-c2ccc3nc(N)nn3c2)cs1)c1ccccc1 [Compound 325]	> 30 µM	0.28 µM
Nc1nc2ccc(-c3csc(C(=O)N[C@H](c4ccccc4)C(F)(F)F)c3)cn2n1 [Compound 326]	> 30 µM	0.255 µM
Nc1nc2ccc(-c3csc(C(=O)NC(c4ccccc4)C4CC4)c3)cn2n1 (centres unmarked) [Compound 327]	6.1 µM	0.042 µM
Nc1nc2ccc(-c3csc(C(=O)NCc4ccc(CN5CCCC5=O)cc4)c3)cn2n1 [Compound 328]	8.2 µM	0.4 µM
CCN(CC)Cc1ccc(CNC(=O)c2cc(-c3ccc4nc(N)nn4c3)cs2)cc1 [Compound 329]	21 µM	0.74 µM
CC(NC(=O)c1cc(-c2ccc3nc(N)nn3c2)cs1)c1cnn(C)c1 (centres unmarked) [Compound 330]	12 µM	0.64 µM
CCn1ccc(C(C)NC(=O)c2cc(-c3ccc4nc(N)nn4c3)cs2)n1 (centres unmarked) [Compound 331]	13 µM	0.91 µM
CC(NC(=O)c1cc(-c2ccc3nc(N)nn3c2)cs1)c1cn[nH]c1 (centres unmarked) [Compound 333]	6.8 µM	0.49 µM
Cc1nc(C(C)NC(=O)c2cc(-c3ccc4nc(N)nn4c3)cs2)sc1C (centres unmarked) [Compound 334]	5.8 µM	0.4 µM

Now those with a lower IC50 (LZK), led by results:

IC50 (LZK)	IC50 (DLK)	Structure (SMILES)
4.5 µM	0.15 µM	Nc1nc2ccc(-c3csc(C(=O)NC4CCc5ccccc54)c3)cn2n1 (centres unmarked) [Compound 307]
3 µM	0.3 µM	CC(C)(NC(=O)c1cc(-c2ccc3nc(N)nn3c2)cs1)c1ccc(F)cc1 [Compound 308]
4.8 µM	0.13 µM	Nc1nc2ccc(-c3csc(C(=O)NC4CCOc5ccc(F)cc54)c3)cn2n1 (centres unmarked) [Compound 315]
4.7 µM	0.18 µM	CC1(C)CC(NC(=O)c2cc(-c3ccc4nc(N)nn4c3)cs2)c2ccccc2O1 (centres unmarked) [Compound 316]
3.6 µM	0.097 µM	Nc1nc2ccc(-c3csc(C(=O)NC4CCOc5ccccc54)c3)cn2n1 (centres unmarked) [Compound 317]
1.7 µM	0.13 µM	Nc1nc2ccc(-c3csc(C(=O)NC4CCCc5cc(F)ccc54)c3)cn2n1 (centres unmarked) [Compound 318]
1.7 µM	0.12 µM	CC[C@H](NC(=O)c1cc(-c2ccc3nc(N)nn3c2)cs1)c1ccc(F)cc1 [Compound 319]
3.7 µM	0.067 µM	CCC[C@H](NC(=O)c1cc(-c2ccc3nc(N)nn3c2)cs1)c1ccccc1 [Compound 321]
1.4 µM	0.12 µM	COC[C@H](NC(=O)c1cc(-c2ccc3nc(N)nn3c2)cs1)c1ccccc1 [Compound 322]
2.95 µM	0.164 µM	C[C@H](NC(=O)c1cc(-c2ccc3nc(N)nn3c2)cs1)c1ccccc1 [Compound 323]
1.6 µM	0.062 µM	CC[C@H](NC(=O)c1cc(-c2ccc3nc(N)nn3c2)cs1)c1ccccc1 [Compound 324]
3.1 µM	0.15 µM	CC(NC(=O)c1cc(-c2ccc3nc(N)nn3c2)cs1)c1nc2c(s1)CCCC2 (centres unmarked) [Compound 332]
